Experimental data taken from patent publication US20040137639A1, “Method of judging efficacy of biological state action affecting bioligical state, judging apparatus, judging system, judging program and recording medium holding the program” (priority 2001, published 2004).

Test system: depressive patient
Assay: Fluctuation in the difference of Lyapunov exponent and entropy (mirror dynamic) under medication
Format: in vivo, human
Conditions: Patient A or Patient B, early stages of treatment, FIG. 15
Method: Taking for an example the case where the action that may change a biological state is a medication, described below is a judging method for the symmetric property of Lyapunov exponent and entropy directly from the graph where the variations of these exponents with time are recorded.
This means, in other words, there exist fluctuations in the difference between Lyapunov exponent and entropy, and such a state can be called “mirror dynamic”. […] On the other hand, the fluctuation in the difference (shadow area) of Lyapunov exponent and entropy is minor in the early stages of treatment for Patient B, and therefore it can be judged that the effectiveness of medication of cloxazolam (1 mg) is low. […]
In the method according to this embodiment for judging the efficacy of an action, measurements of Lyapunov exponent and entropy are carried out at least twice, i.e. before and after the medication. […] Lyapunov exponent and entropy measured at least once after the medication are compared to the results before the medication, the variation in the symmetric property between the Lyapunov exponent and the entropy and the directional property of temporal variation in the difference between the Lyapunov exponent and the entropy, and then the effectiveness of the drug can be judged. […]

With `O=C1CN2CCOC2(c2ccccc2Cl)c2cc(Cl)ccc2N1` (stereo not shown) [cloxazolam, Cloxazolam] the “effectiveness of medication judged from fluctuation in the difference (shadow area) of Lyapunov exponent and entropy” value was “low”.
